{"source": "ChEMBL document CHEMBL1681662", "about": "“A new structural alert for benzimidazoles: 2,6-dimethylphenyl substituents increase mutagenic potential and time-dependent CYP3A4 inhibition risk” (Bioorg Med Chem Lett, 2011)", "key": {"Salmonella typhimurium [1]": {"test_system": "Salmonella typhimurium", "experiment": "Mutagenic activity in Salmonella Typhimurium TA98 assessed as fold increase in maximum revertant at 100 ug by Ames test", "assay_type": "functional"}, "Salmonella typhimurium [2]": {"test_system": "Salmonella typhimurium", "experiment": "Mutagenic activity in Salmonella Typhimurium TA98 assessed as fold increase in maximum revertant at 300 ug by Ames test in presence of S9 fraction", "assay_type": "functional"}, "Cytochrome P450 3A4 [3]": {"target": "T1, Cytochrome P450 3A4 (Homo sapiens, UniProt P08684)", "T1 sequence (P08684 whole entry)": "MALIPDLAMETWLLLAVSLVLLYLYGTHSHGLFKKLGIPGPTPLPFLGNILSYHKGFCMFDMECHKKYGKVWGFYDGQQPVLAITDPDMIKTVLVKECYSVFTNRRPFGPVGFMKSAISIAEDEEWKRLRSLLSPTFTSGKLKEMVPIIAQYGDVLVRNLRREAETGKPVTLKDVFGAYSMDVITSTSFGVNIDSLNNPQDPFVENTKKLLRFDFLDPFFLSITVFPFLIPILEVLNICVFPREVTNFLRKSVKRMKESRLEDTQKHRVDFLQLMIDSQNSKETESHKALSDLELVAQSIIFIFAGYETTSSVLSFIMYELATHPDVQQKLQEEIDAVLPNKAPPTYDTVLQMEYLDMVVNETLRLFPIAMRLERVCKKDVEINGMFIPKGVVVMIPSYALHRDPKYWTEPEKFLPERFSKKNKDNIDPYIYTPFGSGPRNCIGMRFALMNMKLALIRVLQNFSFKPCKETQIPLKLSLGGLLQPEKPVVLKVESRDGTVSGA", "experiment": "Inhibition of CYP3A4", "assay_type": "ADME"}, "Cytochrome P450 3A4 [4]": {"target": "T1, Cytochrome P450 3A4", "experiment": "Inhibition of CYP3A4 in human liver microsome measured after 30 mins preincubation in presence of NADPH", "assay_type": "ADME, microsomes"}, "Salmonella typhimurium [5]": {"test_system": "Salmonella typhimurium", "experiment": "Mutagenic activity in Salmonella Typhimurium TA100 assessed as fold increase in maximum revertant at 1000 ug by Ames test in presence of S9 fraction", "assay_type": "functional, Salmonella enterica subsp. enterica serovar Typhimurium"}, "Salmonella typhimurium [6]": {"test_system": "Salmonella typhimurium", "experiment": "Mutagenic activity in Salmonella Typhimurium TA100 assessed as fold increase in maximum revertant at 1000 ug by Ames test", "assay_type": "functional, Salmonella enterica subsp. enterica serovar Typhimurium"}, "[7]": {"settings": "Salmonella enterica subsp. enterica serovar Typhimurium"}}, "note": "The source made the active and inactive calls. The calls are words filed in the database; no cut-off is given here."}
{"smiles": "O=C(O)CCc1cc(Cl)c(-c2nc3ccc(C(=O)Nc4ccc5ccccc5n4)cc3[nH]2)c(Cl)c1", "values": [{"measurement": "Activity", "setting": "Salmonella typhimurium [1]; [7]", "value": "inactive"}, {"measurement": "Activity", "setting": "Salmonella typhimurium [2]; [7]", "value": "inactive"}]}
{"smiles": "Cc1cccc(C)c1-c1nc2ccc(C(=O)Nc3ccc4ccccc4n3)cc2[nH]1", "values": [{"measurement": "IC50", "setting": "Cytochrome P450 3A4 [3]", "value": 7.3, "unit": "µM"}, {"measurement": "IC50", "setting": "Cytochrome P450 3A4 [4]", "value": 2.7, "unit": "µM"}]}
{"smiles": "Cc1cc(CCCP(=O)(O)O)cc(C)c1-c1nc2ccc(C(=O)Nc3ccc4ccccc4n3)cc2[nH]1", "values": [{"measurement": "fold change (FC)", "setting": "Salmonella typhimurium [5]", "value": 2}, {"measurement": "fold change (FC)", "setting": "Salmonella typhimurium [6]", "value": 2.48}]}
{"smiles": "O=C(Nc1ccc2ccccc2n1)c1ccc2nc(-c3c(Cl)cc(CCCP(=O)(O)O)cc3Cl)[nH]c2c1", "values": [{"measurement": "Activity", "setting": "Salmonella typhimurium [5]; [7]", "value": "inactive"}, {"measurement": "Activity", "setting": "Salmonella typhimurium [6]; [7]", "value": "inactive"}]}
{"smiles": "Cc1ccccc1-c1nc2ccc(C(=O)Nc3ccc4ccccc4n3)cc2[nH]1", "values": [{"measurement": "IC50", "setting": "Cytochrome P450 3A4 [3]", "value": "> 50", "unit": "µM"}, {"measurement": "IC50", "setting": "Cytochrome P450 3A4 [4]", "value": "> 50", "unit": "µM"}]}
{"smiles": "Cc1cc(CCC(=O)O)cc(C)c1-c1nc2ccc(C(=O)Nc3ccc4ccccc4n3)cc2[nH]1", "values": [{"measurement": "fold change (FC)", "setting": "Salmonella typhimurium [1]", "value": 5.86}, {"measurement": "fold change (FC)", "setting": "Salmonella typhimurium [2]", "value": 14.57}]}
